Assay results published in article PMC7466040, “Sevanol and Its Analogues: Chemical Synthesis, Biological Effects and Molecular Docking” (Pharmaceuticals, 2020).

Tests used:
rat ASIC1a = target: T1, rat ASIC1a (Rattus norvegicus, UniProt P55926); experiment: Two-electrode voltage clamp on X. laevis oocytes expressing rat ASIC1a; assay type: cell-based
T1 construct: expressed in transfected cells; host or cells: Xenopus laevis oocytes (cRNA injection)
T1 sequence (P55926 1-526): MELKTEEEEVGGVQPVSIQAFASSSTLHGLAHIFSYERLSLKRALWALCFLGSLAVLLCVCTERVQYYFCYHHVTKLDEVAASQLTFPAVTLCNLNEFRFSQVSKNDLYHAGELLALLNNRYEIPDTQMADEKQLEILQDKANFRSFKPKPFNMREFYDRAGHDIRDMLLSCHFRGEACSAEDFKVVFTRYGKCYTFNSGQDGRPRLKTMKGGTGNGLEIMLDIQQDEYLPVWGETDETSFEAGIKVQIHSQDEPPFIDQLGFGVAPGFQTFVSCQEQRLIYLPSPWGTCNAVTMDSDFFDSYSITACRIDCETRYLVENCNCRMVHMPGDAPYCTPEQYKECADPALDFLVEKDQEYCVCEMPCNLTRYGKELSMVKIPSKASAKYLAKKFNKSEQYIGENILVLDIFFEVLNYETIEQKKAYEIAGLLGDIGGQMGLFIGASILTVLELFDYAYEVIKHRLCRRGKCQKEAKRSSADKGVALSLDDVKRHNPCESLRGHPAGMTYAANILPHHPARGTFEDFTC
Procedure: (§1) Testing the activity of synthetic sevanol (s706) (as a mixture of 75% of sevanol and 25% of isosevanol) and its analogues (s590, EA, and s788) was carried out by the standard two-electrode voltage clamp method on X. laevis oocytes expressing rat ASIC1a and ASIC3 channels. The activation of the channels was performed using a rapid change of the solution from conditioning pH 7.4 to a solution with pH 5.5. Sevanol and its two analogues, s590 and EA, inhibited ASIC1a and ASIC3 channels.
(§2) Oocytes were harvested from female frogs anaesthetized with tricaine methane sulfonate (MS222) (0.17% solution), and the surgery was performed in an ice bath to avoid heavy bleeding. Defolliculated stage IV and V cells were injected with 2.5 and 10 ng cRNA, synthesized from PCi plasmids containing the rat ASIC1a and rat ASIC3 isoforms, respectively, using the Nanoliter 2000 microinjection system (World Precision Instruments, USA). The injected oocytes were kept for 2–3 days at 17 to 19 °C, and then for up to 5 days at 15 °C in a ND96 medium containing (in mM) 96 NaCl, 2 KCl, 1.8 CaCl2, 1 MgCl2, and 5 HEPES titrated to pH 7.4 with NaOH supplemented with gentamycin (50 μg/mL). Two-electrode voltage clamp recordings were performed at a holding potential of −50 mV using a GeneClamp 500 amplifier (Axon Instruments), and the data were filtered at 20 Hz and digitized at 100 Hz by an AD converter L780 (LCard, Russia). Microelectrodes were filled with 3 M KCl. The conditioning bath solution was ND96; the pH was adjusted to 7.4. The activating test solution was constructed based on the ND-96 buffer, in which 5 mM HEPES was replaced with 10 mM MES and pH was adjusted to 5.5. A computer-controlled valve system was used to achieve a rapid solution exchange in the recording chamber. A four parameter logistic equation was used for the curve-fitting analysis: F(x) = ((a1 − a2)/(1 + (x/x0)n)) + a2, where x is the concentration of the compound; F(x) is the response value at a given concentration of the compound; a1 is the control response value (fixed at 100%); x0 is the IC50 value; n is the Hill coefficient (slope factor); and a2 is the response value at the maximal inhibition (% of control).
(§3) Figure 2 The inhibitory activity of sevanol (s706) and its analogues. Currents were elicited by a drop from pH 7.4 to 5.5; the holding potential was −50 mV; (A,C) are dose–response curves for s706, s590 and EA inhibitory effects on ASIC1a and ASIC3 channels, respectively; (B,D) are reciprocal IC50 values for s706, s590 and EA inhibitory effects on ASIC1a and ASIC3 channels, respectively. The data were fitted by the logistic equation. Each point is the mean ± SEM of 5–6 measurements. * p < 0.05, ** p < 0.005.

mice [1] = test system: mice; set-up: method as in PMID 30545037; conditions: parenteral, 0.01–10 mg/kg; cited from earlier work
rat ASIC3 = target: T2, rat ASIC3 (Rattus norvegicus, UniProt O35240); experiment: Two-electrode voltage clamp on X. laevis oocytes expressing rat ASIC3; assay type: cell-based
T2 construct: expressed in transfected cells; host or cells: Xenopus laevis oocytes (cRNA injection)
T2 sequence (O35240 1-533): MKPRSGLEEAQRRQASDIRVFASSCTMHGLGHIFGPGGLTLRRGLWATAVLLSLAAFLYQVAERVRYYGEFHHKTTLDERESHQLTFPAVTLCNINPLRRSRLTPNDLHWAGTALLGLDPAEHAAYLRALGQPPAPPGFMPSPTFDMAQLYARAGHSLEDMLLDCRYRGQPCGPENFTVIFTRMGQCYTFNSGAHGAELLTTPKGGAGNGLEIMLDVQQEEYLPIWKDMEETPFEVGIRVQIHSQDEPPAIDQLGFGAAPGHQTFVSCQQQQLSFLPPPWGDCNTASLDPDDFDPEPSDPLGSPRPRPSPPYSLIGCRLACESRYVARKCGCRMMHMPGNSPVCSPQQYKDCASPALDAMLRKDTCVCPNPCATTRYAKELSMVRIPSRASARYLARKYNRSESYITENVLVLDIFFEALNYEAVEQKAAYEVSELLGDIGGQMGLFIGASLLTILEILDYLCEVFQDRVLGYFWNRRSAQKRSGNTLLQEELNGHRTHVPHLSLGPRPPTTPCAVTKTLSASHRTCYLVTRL
Procedure: as §1, §2, §3

mice [2] = test system: mice; set-up: method as in PMID 30545037; conditions: parenteral, 0.01–10 mg/kg; cited from earlier work; remark: listed apart in the source
[3] = pH 7.4 to 5.5, effect reversible

IC50 (rat ASIC1a; X. laevis oocytes, pH drop 7.4 to 5.5, holding potential −50 mV, mean ± SEM of 5–6, read-out: IC50, inhibition of ASIC1a current): 228 ± 37.4 µM
maximal current block, ASIC1a (rat ASIC1a; [3]): 100%
IC50 (rat ASIC3; X. laevis oocytes, pH drop 7.4 to 5.5, holding potential −50 mV, mean ± SEM of 5–6, read-out: IC50, inhibition of ASIC3 current): 175 ± 18 µM
maximal current block, ASIC3 (rat ASIC3; [3]): 100%
effectiveness in inhibiting ASIC3 relative to ASIC1a (rat ASIC3; ratio of ASIC1a and ASIC3 inhibition): 1.3 times
SMILES: O=C(O)CC(C(=O)O)C(OC(=O)C1=Cc2cc(O)c(O)cc2C(c2ccc(O)c(O)c2)C1C(=O)OC(C(=O)O)C(CC(=O)O)C(=O)O)C(=O)O (stereo not shown) [sevanol]
effect on acetic acid-induced writhing (mice [1]): reduced the number of writhes
effect on CFA-induced thermal hyperalgesia (mice [2]): significantly reversed
